{
  "source": "paper PMC8445847",
  "about": "(iScience, 2021)",
  "key": {"[1]": {"test_system": "JeKo-1 and Mino cells", "experiment": "apoptosis after drug washout", "type": "cell-based, human", "conditions": "5 μM, treated 4 or 8 h, analyzed 16 or 20 h post washout"}, "[2]": {"test_system": "JeKo-1 cells", "experiment": "Annexin V/propidium iodide apoptosis assay", "type": "cell-based, human", "conditions": "up to 5 μM, 24 h, Annexin V/PI"}, "[3]": {"conditions": "relapsed-refractory MCL; ref Byrd et al., 2013; Sarkozy and Ribrag, 2020; cited from earlier work"}, "[4]": {"test_system": "Ibrutinib-resistant Granta cells", "experiment": "Alamar Blue cell viability assay", "type": "cell-based", "conditions": "Homo sapiens, 48 h, read-out: antiproliferative IC50 Granta"}, "[5]": {"test_system": "pPLCγ2(Y759) in JeKo-1 cells", "experiment": "Western blot of IgM-stimulated cells", "type": "cell-based, human", "conditions": "IgM-stimulated JeKo-1 cells, 1 hr"}, "[6]": {"test_system": "Mino cells", "experiment": "Annexin V/propidium iodide apoptosis assay", "type": "cell-based, human", "conditions": "up to 5 μM, 24 h, Annexin V/PI"}, "[7]": {"test_system": "Z-138 cells", "experiment": "Annexin V/propidium iodide apoptosis assay", "type": "cell-based, human", "conditions": "up to 5 μM, 24 h, Annexin V/PI"}, "[8]": {"test_system": "JeKo-1 cells", "experiment": "Alamar Blue cell viability assay", "type": "cell-based, human", "conditions": "read-out: antiproliferative IC50 JeKo-1"}, "[9]": {"test_system": "Mino cells", "experiment": "Alamar Blue cell viability assay", "type": "cell-based, human", "conditions": "48 h, read-out: antiproliferative IC50 Mino"}, "[10]": {"test_system": "BRD4 occupancy at the cMYC promoter in JeKo-1 cells", "experiment": "BRD4 ChIP assay at the cMYC promoter", "type": "cell-based, human", "conditions": "1 μM, 24 h"}, "[11]": {"test_system": "JeKo-1 BTK-WT cells", "experiment": "cell viability assay, engineered BTK cell lines", "type": "cell-based, human"}, "[12]": {"test_system": "pBTK(Y223) and pAKT(S473) in Mino cells", "experiment": "Western blot of IgM-stimulated cells", "type": "cell-based, human", "conditions": "1 hr"}, "[13]": {"test_system": "JeKo-1 MCL tumors", "experiment": "JeKo-1 MCL xenograft tumor model", "type": "in vivo", "conditions": "60 mg/kg daily by oral gavage; SRX3262 vs Ibrutinib-treated mice"}, "[14]": {"test_system": "Mino BTK-WT cells", "experiment": "cell viability assay, engineered BTK cell lines", "type": "cell-based, human", "conditions": "read-out: IC50 Mino BTK-WT; 48 h"}, "[15]": {"test_system": "JeKo-1 cells", "experiment": "cell cycle analysis", "type": "cell-based, human", "conditions": "JeKo-1, 1–5 μM, 24 h"}, "[16]": {"test_system": "BRD4 BD1", "experiment": "NMR titration", "type": "binding", "conditions": "15N-labeled protein, PBS pH 6.8"}, "[17]": {"test_system": "JeKo-1 BTK-C481S cells", "experiment": "cell viability assay, engineered BTK cell lines", "type": "cell-based, human", "conditions": "read-out: IC50 JeKo-1 BTK-C481S; 48 h, Ibrutinib-resistant BTK-C481S"}, "[18]": {"target": "PI3Kδ (Homo sapiens, UniProt O00329)", "sequence (O00329 whole entry)": "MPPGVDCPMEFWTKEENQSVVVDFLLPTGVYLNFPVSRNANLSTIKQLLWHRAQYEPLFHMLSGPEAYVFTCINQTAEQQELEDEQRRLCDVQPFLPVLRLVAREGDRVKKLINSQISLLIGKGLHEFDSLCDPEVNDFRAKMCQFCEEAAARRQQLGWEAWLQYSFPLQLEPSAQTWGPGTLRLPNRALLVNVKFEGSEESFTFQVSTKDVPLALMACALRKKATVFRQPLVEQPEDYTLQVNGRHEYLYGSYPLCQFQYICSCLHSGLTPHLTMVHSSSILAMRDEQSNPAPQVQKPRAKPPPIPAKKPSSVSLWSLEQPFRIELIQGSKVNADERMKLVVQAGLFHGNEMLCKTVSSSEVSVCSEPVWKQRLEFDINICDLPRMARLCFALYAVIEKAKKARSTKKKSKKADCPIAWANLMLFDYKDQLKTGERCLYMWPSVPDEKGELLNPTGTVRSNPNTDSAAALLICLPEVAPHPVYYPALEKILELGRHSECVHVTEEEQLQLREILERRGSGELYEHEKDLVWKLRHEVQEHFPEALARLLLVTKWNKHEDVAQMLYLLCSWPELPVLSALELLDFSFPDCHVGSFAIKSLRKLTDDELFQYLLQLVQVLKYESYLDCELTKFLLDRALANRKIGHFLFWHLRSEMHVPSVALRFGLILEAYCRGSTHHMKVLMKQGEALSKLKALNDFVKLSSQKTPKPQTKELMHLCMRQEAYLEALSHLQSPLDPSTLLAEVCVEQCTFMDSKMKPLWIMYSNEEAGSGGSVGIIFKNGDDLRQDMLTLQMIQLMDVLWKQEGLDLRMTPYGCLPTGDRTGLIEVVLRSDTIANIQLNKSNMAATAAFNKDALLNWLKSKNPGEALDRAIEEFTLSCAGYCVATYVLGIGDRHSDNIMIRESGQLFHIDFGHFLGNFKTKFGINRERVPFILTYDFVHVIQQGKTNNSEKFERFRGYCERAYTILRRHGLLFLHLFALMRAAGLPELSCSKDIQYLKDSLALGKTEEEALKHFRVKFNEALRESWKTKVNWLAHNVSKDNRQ", "sequence (P27986 whole entry partner)": "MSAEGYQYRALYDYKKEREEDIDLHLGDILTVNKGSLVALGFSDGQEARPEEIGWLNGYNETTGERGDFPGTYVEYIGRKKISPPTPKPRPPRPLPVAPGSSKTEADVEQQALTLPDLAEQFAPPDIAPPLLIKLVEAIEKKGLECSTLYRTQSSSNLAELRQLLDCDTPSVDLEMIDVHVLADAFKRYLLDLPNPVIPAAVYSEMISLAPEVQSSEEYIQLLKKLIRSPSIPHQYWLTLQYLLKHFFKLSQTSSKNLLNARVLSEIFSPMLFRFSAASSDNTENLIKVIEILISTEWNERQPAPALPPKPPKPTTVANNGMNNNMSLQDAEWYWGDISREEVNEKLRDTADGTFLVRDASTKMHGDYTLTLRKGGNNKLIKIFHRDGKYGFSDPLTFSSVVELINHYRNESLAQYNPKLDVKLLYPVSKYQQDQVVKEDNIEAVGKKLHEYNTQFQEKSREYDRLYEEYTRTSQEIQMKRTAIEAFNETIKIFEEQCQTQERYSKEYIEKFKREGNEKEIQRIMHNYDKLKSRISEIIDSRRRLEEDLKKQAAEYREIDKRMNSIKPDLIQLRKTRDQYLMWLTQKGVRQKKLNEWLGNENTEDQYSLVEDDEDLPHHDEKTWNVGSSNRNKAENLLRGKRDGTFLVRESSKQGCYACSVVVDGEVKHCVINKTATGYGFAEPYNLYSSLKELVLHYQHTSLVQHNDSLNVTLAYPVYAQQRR", "experiment": "in vitro kinase assay", "type": "biochemical", "conditions": "read-out: IC50 PI3Kδ"}, "[19]": {"target": "BRD4 BD2 (Homo sapiens, UniProt O60885)", "experiment": "Alpha Screen assay against tetra-acetylated histone H4 peptide", "type": "binding", "conditions": "read-out: IC50 BRD4 BD2"}, "[20]": {"target": "BTK (Homo sapiens, UniProt Q06187)", "sequence (Q06187 whole entry)": "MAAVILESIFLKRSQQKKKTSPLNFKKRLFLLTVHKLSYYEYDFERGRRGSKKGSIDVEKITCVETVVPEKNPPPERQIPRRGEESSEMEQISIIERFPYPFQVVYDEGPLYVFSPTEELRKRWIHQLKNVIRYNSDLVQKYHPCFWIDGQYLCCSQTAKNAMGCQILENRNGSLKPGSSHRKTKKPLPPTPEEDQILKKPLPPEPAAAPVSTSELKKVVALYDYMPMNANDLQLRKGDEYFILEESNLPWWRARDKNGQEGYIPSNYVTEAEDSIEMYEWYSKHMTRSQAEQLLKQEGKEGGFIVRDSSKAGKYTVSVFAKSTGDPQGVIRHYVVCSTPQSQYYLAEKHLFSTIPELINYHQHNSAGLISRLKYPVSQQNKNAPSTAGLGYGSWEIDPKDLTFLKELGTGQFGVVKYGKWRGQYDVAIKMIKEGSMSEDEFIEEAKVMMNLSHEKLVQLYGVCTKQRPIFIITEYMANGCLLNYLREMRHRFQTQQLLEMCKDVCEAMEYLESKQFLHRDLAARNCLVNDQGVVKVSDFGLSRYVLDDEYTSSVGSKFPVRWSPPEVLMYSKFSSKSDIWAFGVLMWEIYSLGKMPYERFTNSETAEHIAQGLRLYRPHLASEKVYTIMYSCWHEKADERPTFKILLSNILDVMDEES", "experiment": "in vitro kinase assay", "type": "biochemical", "conditions": "read-out: IC50 BTK"}, "[21]": {"target": "PI3Kα (Homo sapiens, UniProt P42336)", "sequence (P42336 whole entry)": "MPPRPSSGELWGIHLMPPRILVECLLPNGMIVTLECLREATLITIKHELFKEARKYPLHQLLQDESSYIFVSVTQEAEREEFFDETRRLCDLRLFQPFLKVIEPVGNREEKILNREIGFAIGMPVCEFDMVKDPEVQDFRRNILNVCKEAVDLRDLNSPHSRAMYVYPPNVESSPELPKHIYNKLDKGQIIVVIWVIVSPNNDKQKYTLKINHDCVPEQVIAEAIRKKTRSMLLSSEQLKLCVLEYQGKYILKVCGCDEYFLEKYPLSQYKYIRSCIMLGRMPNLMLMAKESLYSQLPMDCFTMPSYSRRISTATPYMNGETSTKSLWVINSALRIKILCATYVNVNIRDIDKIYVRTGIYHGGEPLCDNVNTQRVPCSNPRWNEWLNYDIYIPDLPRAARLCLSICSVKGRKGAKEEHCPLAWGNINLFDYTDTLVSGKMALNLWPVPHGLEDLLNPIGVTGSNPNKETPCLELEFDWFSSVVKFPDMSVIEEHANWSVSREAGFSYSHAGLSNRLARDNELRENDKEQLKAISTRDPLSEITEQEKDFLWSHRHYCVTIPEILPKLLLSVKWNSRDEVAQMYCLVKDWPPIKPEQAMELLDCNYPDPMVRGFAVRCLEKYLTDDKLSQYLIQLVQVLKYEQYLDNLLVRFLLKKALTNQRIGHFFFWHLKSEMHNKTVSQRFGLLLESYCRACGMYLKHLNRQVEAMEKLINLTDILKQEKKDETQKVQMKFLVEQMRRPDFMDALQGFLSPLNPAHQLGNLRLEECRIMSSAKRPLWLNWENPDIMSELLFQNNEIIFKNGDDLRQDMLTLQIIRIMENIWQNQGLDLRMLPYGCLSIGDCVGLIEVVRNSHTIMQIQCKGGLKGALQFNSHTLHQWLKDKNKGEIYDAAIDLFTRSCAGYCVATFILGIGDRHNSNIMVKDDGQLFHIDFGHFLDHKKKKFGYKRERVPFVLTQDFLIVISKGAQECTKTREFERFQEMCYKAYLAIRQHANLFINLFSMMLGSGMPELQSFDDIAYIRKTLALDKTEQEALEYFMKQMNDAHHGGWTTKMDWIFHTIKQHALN", "sequence (P27986 whole entry partner)": "as the sequence (P27986 whole entry partner) above", "experiment": "in vitro kinase assay", "type": "biochemical", "conditions": "read-out: IC50 PI3Kα"}, "[22]": {"test_system": "BTK and AKT phosphorylation in Mino cells", "experiment": "inhibitor washout assay", "conditions": "1 h treatment, 24 h post washout"}, "[23]": {"test_system": "JeKo-1 chronic Ibrutinib-resistant cell line", "experiment": "Cell titer Glow viability assay", "type": "cell-based, human"}, "[24]": {"test_system": "JeKo-1 BTK-WT, JeKo-1 BTK-C481S and Mino BTK-C481S cells", "conditions": "up to 5 μM"}, "[25]": {"target": "BRD4 BD1 (Homo sapiens, UniProt O60885)", "experiment": "Alpha Screen assay against tetra-acetylated histone H4 peptide", "type": "binding", "conditions": "read-out: IC50 BRD4 BD1"}, "[26]": {"test_system": "cMYC, BCL2 and HEXIM1 expression in JeKo-1 and Mino cells", "experiment": "qRT-PCR of BRD4 target genes", "type": "cell-based, human", "conditions": "1 and 2.5 μM, 24 hr"}, "[27]": {"test_system": "cMYC protein in Jeko-1 and Mino cells", "experiment": "Western blot of cMYC", "type": "cell-based, human"}, "[28]": {"test_system": "BRD4 BD2", "experiment": "NMR titration", "type": "binding", "conditions": "15N-labeled protein, PBS pH 6.8"}, "[29]": {"test_system": "Mino BTK-C481S cells", "experiment": "cell viability assay, engineered BTK cell lines", "type": "cell-based, human", "conditions": "read-out: IC50 Mino BTK-C481S; 48 h, Ibrutinib-resistant BTK-C481S"}},
  "note": "Where two headings read alike, the source gives them in different places.",
  "data": [
    {"molecule": "C=CC(=O)N1CCC[C@@H](n2nc(-c3ccc(Oc4ccccc4)cc3)c3c(N)ncnc32)C1", "note": "[Ibrutinib, reference compound]", "values": [
      {"measurement": "cells undergoing apoptosis after drug washout", "setting": "[1]", "result": "20–30%"},
      {"measurement": "apoptosis JeKo-1", "setting": "[2]", "result": "no effect"},
      {"measurement": "complete response", "setting": "[3]", "result": 23, "unit": "%"},
      {"measurement": "objective response rate", "setting": "[3]", "result": 68, "unit": "%"},
      {"measurement": "IC50", "setting": "[4]", "result": 20000, "unit": "nM"},
      {"measurement": "phosphorylation of PLCγ2", "setting": "[5]", "result": "inhibited phosphorylation of PLCγ2"},
      {"measurement": "apoptosis Mino", "setting": "[6]", "result": "mild effect"},
      {"measurement": "apoptosis Z-138", "setting": "[7]", "result": "mild effect"},
      {"measurement": "IC50", "setting": "[8]; Homo sapiens, JeKo-1, 48 h", "result": 8000, "unit": "nM"},
      {"measurement": "IC50", "setting": "[9]; Homo sapiens, MINO", "result": 6500, "unit": "nM"}
    ]},
    {"molecule": "Cc1sc2c(c1C)C(c1ccc(Cl)cc1)=N[C@@H](CC(=O)OC(C)(C)C)c1nnc(C)n1-2", "note": "[JQ1, reference compound]", "values": [
      {"measurement": "BRD4 localization at the cMYC promoter site", "setting": "[10]", "result": "decreased"}
    ]},
    {"molecule": "C=CC(=O)N1CCOc2ccc(-c3csc4c(=O)cc(N5CCOCC5)oc34)cc21", "note": "[SRX3262]", "values": [
      {"measurement": "cells undergoing apoptosis after drug washout", "setting": "[1]", "result": "40–70%"},
      {"measurement": "apoptosis JeKo-1", "setting": "[2]", "result": "dramatically increased apoptosis"},
      {"measurement": "times more effective than Ibrutinib", "setting": "[11]; both JeKo-1 BTK-WT and JeKo-1 BTK-C481S cells", "result": "20–27 times"},
      {"measurement": "IC50", "setting": "[11]; read-out: IC50 JeKo-1 BTK-WT, 48 h", "result": 550, "unit": "nM"},
      {"measurement": "phosphorylation of S473 in AKT", "setting": "[12]", "result": "inhibited phosphorylation"},
      {"measurement": "phosphorylation of Y223 in BTK", "setting": "[12]", "result": "inhibited phosphorylation"},
      {"measurement": "body weight", "setting": "[13]", "result": "did not observe any notable changes in body weight"},
      {"measurement": "IC50", "setting": "[14]", "result": 690, "unit": "nM"},
      {"measurement": "cell cycle arrest", "setting": "[15]", "result": "induced G2 phase cell cycle arrest"},
      {"measurement": "binding to BRD4 BD1 (chemical shift perturbations)", "setting": "[16]", "result": "binds to both BD1 and BD2"},
      {"measurement": "phosphorylation of PLCγ2", "setting": "[5]", "result": "inhibited phosphorylation of PLCγ2"},
      {"measurement": "IC50", "setting": "[17]", "result": 730, "unit": "nM"},
      {"measurement": "IC50", "setting": "[18]", "result": 16, "unit": "nM"},
      {"measurement": "IC50", "setting": "[19]", "result": 348, "unit": "nM"},
      {"measurement": "IC50", "setting": "[20]", "result": 35, "unit": "nM"},
      {"measurement": "BRD4 localization at the cMYC promoter site", "setting": "[10]", "result": "decreased"},
      {"measurement": "apoptosis Mino", "setting": "[6]", "result": "dramatically increased apoptosis"},
      {"measurement": "IC50", "setting": "[21]", "result": 64, "unit": "nM"},
      {"measurement": "apoptosis Z-138", "setting": "[7]", "result": "dramatically increased apoptosis"},
      {"measurement": "AKT phosphorylation after inhibitor washout", "setting": "[22]", "result": "sustained inhibition of AKT phosphorylation"},
      {"measurement": "IC50", "setting": "[8]; Alamar Blue, 48 h", "result": 620, "unit": "nM"},
      {"measurement": "decrease in cell viability compared to Ibrutinib", "setting": "[23]", "result": "3–6 times"},
      {"measurement": "apoptosis in BTK-WT and Ibrutinib-resistant BTK-C481S cells", "setting": "[24]", "result": "increase in apoptotic cell death"},
      {"measurement": "IC50", "setting": "[25]", "result": 228, "unit": "nM"},
      {"measurement": "IC50", "setting": "[9]; Alamar Blue", "result": 130, "unit": "nM"},
      {"measurement": "expression of HEXIM1", "setting": "[26]", "result": "increase of expression of HEXIM1"},
      {"measurement": "expression of cMYC and BCL2", "setting": "[26]", "result": "decrease of expression"},
      {"measurement": "cMYC protein level", "setting": "[27]", "result": "decreased the cMYC protein level"},
      {"measurement": "binding to BRD4 BD2 (chemical shift perturbations)", "setting": "[28]", "result": "binds to both BD1 and BD2"},
      {"measurement": "IC50", "setting": "[29]", "result": 380, "unit": "nM"}
    ]}
  ]
}
